The numbers were not newly measured in US20250369953A1, “METHODS FOR MEASURING CIRCADIAN RHYTHM FACTORS” (priority 2024, published 2025), which cites them from elsewhere.

Consider `COc1ccc2[nH]cc(CCNC(C)=O)c2c1` [Melatonin, N-acetyl-5-methoxytryptamine], for which, for the setting “endogenous, nighttime sleep, occurring at approximately 02:00 am”, the peak plasma concentrations entry is “approximately 70 μg/ml”. In addition, under “healthy young adult humans”, the metabolic clearance result was “approximately 1 liter per minute” and the volume of distribution result is “approximately 40 liters”.
